Reference: ChEMBL document CHEMBL1201862, “PubChem BioAssay data set” (2004)
The source made the active and inactive calls. How the calls were made is not given here.

Tests used:
Exodeoxyribonuclease V = target: T1, Exodeoxyribonuclease V (Escherichia coli (strain K12), UniProt P04993+P07648+P08394); assay: E. coli RecBCD inhibitors, dose response, counter-screen for AddAB inhibitor project, absorbance, V66 E. coli, mutant T4 phage (AID 492957); type: functional, cell-based, Escherichia coli str. K-12 substr. MG1655
T1 sequence (P04993 whole entry): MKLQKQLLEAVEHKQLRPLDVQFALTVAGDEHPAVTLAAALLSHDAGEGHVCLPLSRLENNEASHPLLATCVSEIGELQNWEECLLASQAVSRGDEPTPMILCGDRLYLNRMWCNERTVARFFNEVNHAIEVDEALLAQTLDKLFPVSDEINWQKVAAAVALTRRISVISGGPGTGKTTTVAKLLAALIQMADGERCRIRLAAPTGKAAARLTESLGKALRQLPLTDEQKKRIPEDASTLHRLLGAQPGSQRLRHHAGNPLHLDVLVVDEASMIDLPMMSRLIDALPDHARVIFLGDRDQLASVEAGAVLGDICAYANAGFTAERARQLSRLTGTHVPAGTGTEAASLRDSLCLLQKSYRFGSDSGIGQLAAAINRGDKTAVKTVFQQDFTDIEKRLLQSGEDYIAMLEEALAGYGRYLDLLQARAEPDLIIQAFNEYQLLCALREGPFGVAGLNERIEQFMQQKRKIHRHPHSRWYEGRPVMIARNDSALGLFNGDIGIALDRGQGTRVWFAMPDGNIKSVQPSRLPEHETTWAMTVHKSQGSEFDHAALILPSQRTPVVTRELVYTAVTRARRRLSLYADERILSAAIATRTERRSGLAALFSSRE
T1 sequence (P07648 whole entry): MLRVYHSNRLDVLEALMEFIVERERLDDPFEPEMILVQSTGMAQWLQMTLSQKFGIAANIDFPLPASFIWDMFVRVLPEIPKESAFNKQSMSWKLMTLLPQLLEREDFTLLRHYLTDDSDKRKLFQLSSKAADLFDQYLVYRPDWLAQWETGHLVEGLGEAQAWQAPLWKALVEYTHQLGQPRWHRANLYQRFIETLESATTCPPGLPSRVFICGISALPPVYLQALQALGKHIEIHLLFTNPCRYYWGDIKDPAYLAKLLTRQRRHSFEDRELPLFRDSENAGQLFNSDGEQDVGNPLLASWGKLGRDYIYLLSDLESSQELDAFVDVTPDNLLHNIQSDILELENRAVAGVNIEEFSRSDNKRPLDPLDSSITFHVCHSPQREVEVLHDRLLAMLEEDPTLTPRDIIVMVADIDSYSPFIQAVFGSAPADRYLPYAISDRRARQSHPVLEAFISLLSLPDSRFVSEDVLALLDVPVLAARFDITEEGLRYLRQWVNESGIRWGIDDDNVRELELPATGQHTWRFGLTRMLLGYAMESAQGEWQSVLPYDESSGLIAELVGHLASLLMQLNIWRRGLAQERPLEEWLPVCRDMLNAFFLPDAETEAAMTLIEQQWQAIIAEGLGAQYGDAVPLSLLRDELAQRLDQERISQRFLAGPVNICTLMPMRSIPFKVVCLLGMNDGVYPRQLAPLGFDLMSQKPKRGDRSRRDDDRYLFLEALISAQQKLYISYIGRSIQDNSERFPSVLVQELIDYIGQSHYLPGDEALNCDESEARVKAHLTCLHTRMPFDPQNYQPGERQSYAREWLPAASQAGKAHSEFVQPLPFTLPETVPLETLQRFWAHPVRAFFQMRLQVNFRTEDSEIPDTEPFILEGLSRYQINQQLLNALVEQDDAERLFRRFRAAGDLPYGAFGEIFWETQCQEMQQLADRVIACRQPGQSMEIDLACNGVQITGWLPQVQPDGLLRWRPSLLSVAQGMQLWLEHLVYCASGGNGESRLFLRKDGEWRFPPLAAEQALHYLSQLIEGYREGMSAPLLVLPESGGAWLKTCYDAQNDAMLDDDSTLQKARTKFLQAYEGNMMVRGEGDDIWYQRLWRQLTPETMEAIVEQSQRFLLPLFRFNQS
T1 sequence (P08394 whole entry): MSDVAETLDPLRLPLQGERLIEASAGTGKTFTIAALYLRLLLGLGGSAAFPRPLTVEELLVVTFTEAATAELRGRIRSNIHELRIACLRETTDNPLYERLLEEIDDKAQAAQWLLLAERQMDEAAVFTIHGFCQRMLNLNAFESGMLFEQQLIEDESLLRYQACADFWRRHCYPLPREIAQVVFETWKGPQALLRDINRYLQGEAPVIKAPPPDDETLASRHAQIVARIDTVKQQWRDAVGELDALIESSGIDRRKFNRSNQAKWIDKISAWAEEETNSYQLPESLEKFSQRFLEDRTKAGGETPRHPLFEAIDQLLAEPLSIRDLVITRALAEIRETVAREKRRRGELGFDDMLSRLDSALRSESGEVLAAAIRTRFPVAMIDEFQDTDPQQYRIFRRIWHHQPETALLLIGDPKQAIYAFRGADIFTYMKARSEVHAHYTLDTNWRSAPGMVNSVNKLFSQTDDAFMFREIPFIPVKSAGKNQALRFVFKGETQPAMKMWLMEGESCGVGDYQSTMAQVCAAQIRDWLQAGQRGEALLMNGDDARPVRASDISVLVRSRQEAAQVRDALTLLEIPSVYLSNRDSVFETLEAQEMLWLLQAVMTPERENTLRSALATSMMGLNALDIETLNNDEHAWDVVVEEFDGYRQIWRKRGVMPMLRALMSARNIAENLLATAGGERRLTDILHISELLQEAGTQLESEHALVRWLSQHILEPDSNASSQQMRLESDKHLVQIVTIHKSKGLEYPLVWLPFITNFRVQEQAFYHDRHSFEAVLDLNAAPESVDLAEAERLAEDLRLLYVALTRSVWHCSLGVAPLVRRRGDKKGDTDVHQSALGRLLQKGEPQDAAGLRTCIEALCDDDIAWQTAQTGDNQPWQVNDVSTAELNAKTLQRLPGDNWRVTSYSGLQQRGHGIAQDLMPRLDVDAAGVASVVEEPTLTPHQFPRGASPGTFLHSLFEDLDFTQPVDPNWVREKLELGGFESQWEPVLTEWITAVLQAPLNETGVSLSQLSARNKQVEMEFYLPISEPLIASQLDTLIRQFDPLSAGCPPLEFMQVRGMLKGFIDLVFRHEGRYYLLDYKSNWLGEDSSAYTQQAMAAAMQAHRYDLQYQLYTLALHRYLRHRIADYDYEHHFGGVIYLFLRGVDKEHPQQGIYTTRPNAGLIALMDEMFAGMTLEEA

[1] = Counterscreen for AddAB inhibitors: absorbance-based bacterial cell-based high throughput dose response assay for inhibitors of bacterial viability. [Related pubchem assays (depositor defined):AID435030, AID449728, AID449731, AID488942, AID488955, AID488956]; type: functional
cells = type: functional
[2] = THP-1 cell cytotoxicity, dose response, cytotoxicity control for non-replicating M. tuberculosis project (AID 489025); type: functional

Row | Compound | IC50 (Exodeoxyribonuclease V) | IC50 [1] | IC50 (cells) | CC50 [2]
1 | O=C(CNc1cccc2ccccc12)N/N=C/c1ccc([N+](=O)[O-])o1 | > 118 µM (inactive) | > 118 µM (inactive) | 3.24 µM (active) | 16.8 µM (active)
2 | O=C(CC(O)(C(F)(F)F)C(F)(F)F)Nc1ccc(Cl)c(Cl)c1 | 44 µM (inactive) | 39 µM (inactive) |  | 
3 | Cc1ccc(NC(=O)C2=C(c3ccccc3)S(=O)(=O)CCS2(=O)=O)cc1 |  |  | 38.3 µM (active) | 19.4 µM (active)
